Experimental data as given in US20050202511A1, “AMP-activated protein kinase (AMPK) inhibitor screening assay” (priority 2002, published 2005).
Values joined by “and” are separate entries in the source; they are usually repeats but may differ in a detail not shown here. Equal entries are not always repeated. Where two headings read alike, the source gives them in different places. Each block holds one molecule with its values, some of them ahead of it.

Assays:
[1] = biological target: T1, IMPDH2 CBS domain pair (wild type) (Homo sapiens, UniProt P12268); test: Displacement of bound ATP; type: binding
T1 construct: For IMPDH2, DNAs encoding residues 112-232 or the full-length protein (1-514) were amplified; His tag (vector pHAT20); made in house; host or cells: E. coli
Description: (§8) ATP or [^35S]SAM were incubated with GST-CBS domain fusions (1 ìM for WT, up to 20 μM for some mutants) for 10 min at 25° C. in a 20 il total volume in TBS. Reactions were stopped by spotting 10 ìl onto a Millipore MF Filter Membrane disc and rapidly washing under high vacuum with 1 ml of ice-cold TBS. Radioactivity was determined on the filters by scintillation counting. Non-specific binding (which was trivial) was determined by performing the assay with GST as a control, and was subtracted. […] Data were fitted to the binding models given in the text, using GraphPad Prism 3.

CLC2 CBS1-2 (WT) = biological target: T2, CLC2 CBS1-2 (WT) (Homo sapiens, UniProt P51788); test: Filter binding assay, GST-CBS domain fusion; conditions: single-site model
T2 construct: DNAs encoding residues 582-840 of CLC2; made in house; host or cells: E. coli BL21 (DE3)
T2 sequence (P51788 582-840): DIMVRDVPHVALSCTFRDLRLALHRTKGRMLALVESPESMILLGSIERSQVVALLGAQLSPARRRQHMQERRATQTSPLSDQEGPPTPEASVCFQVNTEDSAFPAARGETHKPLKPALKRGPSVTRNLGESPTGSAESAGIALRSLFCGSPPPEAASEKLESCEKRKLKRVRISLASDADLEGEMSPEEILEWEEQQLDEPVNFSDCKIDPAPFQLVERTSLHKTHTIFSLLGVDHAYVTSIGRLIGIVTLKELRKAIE
Description: DNA encoding the CBS domain pair from the chloride channel CLC2 was also cloned and expressed.
as §8

[2] = biological target: T3, recombinant á1â1γ1 heterotrimer (Rattus norvegicus, UniProt P80385); test: AMPK heterotrimer kinase assay, activation by AMP; type: biochemical
T3 construct: expressed in transfected cells; host or cells: CCL13 cells
T3 sequence (P80385 whole entry): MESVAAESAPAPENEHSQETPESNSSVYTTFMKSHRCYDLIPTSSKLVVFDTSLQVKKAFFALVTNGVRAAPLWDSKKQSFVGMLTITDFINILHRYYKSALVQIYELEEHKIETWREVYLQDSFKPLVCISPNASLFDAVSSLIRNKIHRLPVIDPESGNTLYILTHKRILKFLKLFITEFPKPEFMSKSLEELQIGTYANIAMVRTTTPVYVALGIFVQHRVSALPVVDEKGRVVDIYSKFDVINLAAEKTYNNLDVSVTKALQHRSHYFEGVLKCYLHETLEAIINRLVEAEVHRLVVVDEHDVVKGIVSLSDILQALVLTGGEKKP
T3 sequence (P54645 whole entry partner): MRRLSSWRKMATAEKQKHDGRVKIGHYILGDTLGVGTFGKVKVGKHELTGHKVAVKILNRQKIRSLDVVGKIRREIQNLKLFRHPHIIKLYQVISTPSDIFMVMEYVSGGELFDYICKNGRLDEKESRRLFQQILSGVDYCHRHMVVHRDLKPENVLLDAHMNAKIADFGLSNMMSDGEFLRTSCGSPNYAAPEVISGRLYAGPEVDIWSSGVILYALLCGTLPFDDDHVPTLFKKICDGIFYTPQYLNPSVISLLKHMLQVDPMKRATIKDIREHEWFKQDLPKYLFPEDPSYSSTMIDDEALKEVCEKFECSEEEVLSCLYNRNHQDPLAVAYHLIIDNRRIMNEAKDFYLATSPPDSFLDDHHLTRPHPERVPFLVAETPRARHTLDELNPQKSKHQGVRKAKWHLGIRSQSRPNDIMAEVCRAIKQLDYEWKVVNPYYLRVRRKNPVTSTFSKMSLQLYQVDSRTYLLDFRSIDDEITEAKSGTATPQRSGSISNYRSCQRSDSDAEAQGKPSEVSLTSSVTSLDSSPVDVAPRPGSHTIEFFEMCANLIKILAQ
T3 sequence (P80386 whole entry partner): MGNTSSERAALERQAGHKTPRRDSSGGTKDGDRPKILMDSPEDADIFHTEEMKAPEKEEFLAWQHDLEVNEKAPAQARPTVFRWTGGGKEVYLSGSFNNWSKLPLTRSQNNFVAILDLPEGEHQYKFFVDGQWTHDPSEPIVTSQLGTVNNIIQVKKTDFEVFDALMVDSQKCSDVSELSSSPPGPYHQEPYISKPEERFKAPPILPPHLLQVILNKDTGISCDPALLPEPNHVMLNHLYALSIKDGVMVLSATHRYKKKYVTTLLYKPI
Text: (§1) Plasmids expressing myc-tagged á1, â1 and γ1, γ2 (with or without WPWS mutations) or γ3 were expressed in CCL13 cells and the recombinant complexes immunoprecipitated using anti-myc antibodies.
(§2) PCDNA plasmids (14,25,32) encoding á1, â1 and γ1, γ2 or γ3 were expressed in CCL13 cells (25), subject to “rapid lysis”, immunoprecipitated using anti-myc antibody, and assayed as described previously (33). “Slow lysis” of CCL13 cells was as described by Stein et al (34).

[3] = biological target: T4, recombinant á1â1γ3 heterotrimer (Homo sapiens, UniProt Q9UGI9); test: AMPK heterotrimer kinase assay, activation by AMP; type: biochemical
T4 construct: expressed in transfected cells; host or cells: CCL13 cells
T4 sequence (Q9UGI9 whole entry): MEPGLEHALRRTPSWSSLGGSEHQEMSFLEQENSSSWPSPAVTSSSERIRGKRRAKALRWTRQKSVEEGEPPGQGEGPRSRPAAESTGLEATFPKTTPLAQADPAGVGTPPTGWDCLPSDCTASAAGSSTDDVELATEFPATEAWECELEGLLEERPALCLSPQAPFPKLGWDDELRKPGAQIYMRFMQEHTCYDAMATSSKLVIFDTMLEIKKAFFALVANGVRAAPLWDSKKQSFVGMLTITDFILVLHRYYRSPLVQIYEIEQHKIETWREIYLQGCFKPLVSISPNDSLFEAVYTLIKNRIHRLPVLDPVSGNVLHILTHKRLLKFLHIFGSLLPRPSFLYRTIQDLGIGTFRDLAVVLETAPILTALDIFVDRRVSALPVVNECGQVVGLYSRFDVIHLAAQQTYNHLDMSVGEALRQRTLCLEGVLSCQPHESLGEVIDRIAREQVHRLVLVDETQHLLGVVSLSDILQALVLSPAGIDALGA
T4 sequence (P54645 whole entry partner): as the sequence (P54645 whole entry partner) above
T4 sequence (P80386 2-270 partner limits assumed): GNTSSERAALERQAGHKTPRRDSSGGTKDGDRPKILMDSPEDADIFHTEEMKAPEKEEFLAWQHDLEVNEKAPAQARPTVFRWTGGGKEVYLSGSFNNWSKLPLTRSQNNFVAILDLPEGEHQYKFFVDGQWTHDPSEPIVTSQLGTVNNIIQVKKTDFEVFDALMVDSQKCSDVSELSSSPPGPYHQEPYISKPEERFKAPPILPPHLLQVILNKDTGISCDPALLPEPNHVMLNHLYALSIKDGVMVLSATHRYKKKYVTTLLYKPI
Text: as §1, §2

[4] = biological target: T5, recombinant á1â1γ2 heterotrimer (R302Q) (Homo sapiens, UniProt Q9UGJ0, R302Q); test: AMPK heterotrimer kinase assay, activation by AMP; type: biochemical
T5 construct: expressed in transfected cells; host or cells: CCL13 cells
T5 sequence (Q9UGJ0 whole entry R302Q): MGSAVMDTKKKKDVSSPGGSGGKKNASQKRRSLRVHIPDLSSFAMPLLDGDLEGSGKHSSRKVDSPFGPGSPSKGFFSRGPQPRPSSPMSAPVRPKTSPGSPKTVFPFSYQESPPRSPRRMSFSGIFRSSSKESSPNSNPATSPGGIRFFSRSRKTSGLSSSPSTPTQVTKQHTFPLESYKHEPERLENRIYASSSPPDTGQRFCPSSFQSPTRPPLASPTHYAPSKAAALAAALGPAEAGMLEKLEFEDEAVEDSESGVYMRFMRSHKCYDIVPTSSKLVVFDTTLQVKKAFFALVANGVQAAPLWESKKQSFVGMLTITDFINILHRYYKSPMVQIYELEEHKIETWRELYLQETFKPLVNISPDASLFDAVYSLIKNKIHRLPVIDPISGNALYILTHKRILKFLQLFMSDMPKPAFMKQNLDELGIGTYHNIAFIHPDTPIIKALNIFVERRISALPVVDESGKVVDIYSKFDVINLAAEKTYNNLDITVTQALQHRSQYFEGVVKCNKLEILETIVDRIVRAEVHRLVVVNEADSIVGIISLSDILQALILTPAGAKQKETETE
T5 sequence (P54645 whole entry partner): as the sequence (P54645 whole entry partner) above
T5 sequence (P80386 whole entry partner): as the sequence (P80386 whole entry partner) above
Text: as §1
(§3) For this reason, the estimates of A0.5 for the H383R and T400N mutants are somewhat less accurate than the others, while no value could be obtained for the R531 G mutant. […] With some mutants, the maximal activation also appeared to be affected.
as §2

[5] = biological target: T6, recombinant á1â1γ2 heterotrimer (H383R) (Homo sapiens, UniProt Q9UGJ0, H383R); test: AMPK heterotrimer kinase assay, activation by AMP; type: biochemical; conditions: slow lysis; estimate somewhat less accurate; read-out: A0.5
T6 construct: expressed in transfected cells; host or cells: CCL13 cells
T6 sequence (Q9UGJ0 whole entry H383R): as the sequence (Q9UGJ0 whole entry R302Q) above, with Q302R, H383R counted along it
T6 sequence (P54645 whole entry partner): as the sequence (P54645 whole entry partner) above
T6 sequence (P80386 whole entry partner): as the sequence (P80386 whole entry partner) above
Text: as §1, §3, §2

rat liver AMPK = conditions: read-out: half-maximal effect (A0.5), cited from earlier work
IMPDH2 CBS1-2 (R224P) = biological target: T7, IMPDH2 CBS1-2 (R224P) (Homo sapiens, UniProt P12268, R224P); test: Filter binding assay, isolated CBS domain pair; conditions: single-site model
T7 construct: DNAs encoding residues 112-232 or the full-length protein (1-514) were amplified; His tag (pHAT20 vector); made in house; host or cells: E. coli
Text: To examine whether binding of adenine nucleotides is a general function for CBS domains, or is specific to the γ subunits of AMPK, IMP dehydrogenase (IMPDH) was also studied. Retinitis pigmentosa can be caused by an R224P mutation in the second CBS domain of the IMPDH1 isoform (27). However, the IMPDH2 isoform is 84% identical in amino acid sequence with IMPDH1, and the arginine mutated in retinitis pigmentosa is conserved. Because the IMPDH2 isoform is ubiquitously expressed and a suitable cDNA to use as a template for PCR was more readily available, DNA encoding the single pair of CBS domains from human IMPDH2 was cloned, an R224P mutation was created and expressed both the wild type and the mutant as His-tagged proteins in E. coli.
(§4) For IMPDH2, DNAs encoding residues 112-232 or the full-length protein (1-514) were amplified using human liver cDNA (Clontech) as template, and cloned into pHAT20 (Clontech) using 5′-AgeI and 3′-KpnI sites added to the primers. For the other constructs, DNAs encoding residues 582-840 of CLC2, or 416-551 of cystathionine â-synthase, were amplified using human liver cDNA as template, and cloned into pGEX-KG as above using 5′-BamHI and 3′-XhoI sites added to the primers. All mutations were created using the Stratagene QuikChange Site-directed Mutagenesis system.
(§5) The IMPDH2 constructs were His-tagged and were purified on chelating-Sepharose (Pharmacia) charged with 50 mM CoCl2 according to manufacturer's instructions.
Various concentrations of [^14C]-AMP, [γ^32P] […] Reactions were stopped by spotting 10 ìl onto a Millipore MF Filter Membrane disc and rapidly washing under high vacuum with 1 ml of ice-cold TBS. Radioactivity was determined on the filters by scintillation counting. Non-specific binding (which was trivial) was determined by performing the assay with GST as a control, and was subtracted. […] Data were fitted to the binding models given in the text, using GraphPad Prism 3. […]

IMPDH2 Tetramer (WT) = biological target: T8, IMPDH2 Tetramer (WT) (Homo sapiens, UniProt P12268); test: Filter binding assay, full-length protein; conditions: for Kd: read-out: B0.5
T8 construct: the full-length protein (1-514); His tag (pHAT20 vector); made in house; host or cells: E. coli
Text: as §4, §5
(§6) Various concentrations of [^14C]-AMP, [γ^32P] […] Reactions were stopped by spotting 10 ìl onto a Millipore MF Filter Membrane disc and rapidly washing under high vacuum with 1 ml of ice-cold TBS. Radioactivity was determined on the filters by scintillation counting. Non-specific binding (which was trivial) was determined by performing the assay with GST as a control, and was subtracted. […] Data were fitted to the binding models given in the text, using GraphPad Prism 3. Estimates of parameters resulting from fits are quoted in the text and Table 1±standard error, and the curves shown in figures are theoretical curves obtained using those estimates.

AMPK-γ2 CBS1-2 construct = biological target: T9, AMPK-γ2 CBS1-2 construct (Homo sapiens, UniProt Q9UGJ0); test: Displacement of [14C]AMP by unlabelled MgATP; type: binding; conditions: high concentrations of MgATP
T9 construct: the N-terminal pair (CBS1-2, residues 274-410); made in house; host or cells: E. coli BL21 (DE3)
T9 sequence (Q9UGJ0 274-410): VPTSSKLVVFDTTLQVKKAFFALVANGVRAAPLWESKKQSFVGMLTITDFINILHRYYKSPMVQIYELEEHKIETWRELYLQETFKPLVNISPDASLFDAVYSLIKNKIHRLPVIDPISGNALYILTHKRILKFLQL
Description: This yielded estimates for KdAMP and KdATP of 51 and 180 iM. These are very close to the estimates obtained by direct binding measurements (53 and 175 iÌ).
as §6

[6] = biological target: T10, full-length IMPDH2 (R224P) (Homo sapiens, UniProt P12268, R224P); test: Enzymatic assay of IMPDH2; type: biochemical; conditions: highest concentration used 2 mM
T10 construct: DNAs encoding residues 112-232 or the full-length protein (1-514) were amplified using human liver cDNA; His tag (vector pHAT20); made in house; host or cells: E. coli
Description: (§7) IMPDH2 was assayed by following the increase in absorbance at 340 nm due to formation of NADH in a BMG Fluostar Optima plate reader at 30° C. in plate mode. The assay buffer contained 50 mM Tris/HCl, 100 mM KCl, 1 mM DTT, 3 mM EDTA, and 5 mM MgCl. […] The total volume was 200 μl and the reaction started by addition of IMP (or NAD^+ where [IMP] was the variable).

[7] = biological target: T11, full-length IMPDH2 (wild type) (Homo sapiens, UniProt P12268); test: Enzymatic assay of IMPDH2; type: biochemical
T11 construct: DNAs encoding residues 112-232 or the full-length protein (1-514) were amplified using human liver cDNA; His tag (vector pHAT20); made in house; host or cells: E. coli
Description: as §7

[8] = immunoprecipitated from CCL13 cells, slow lysis, read-out: A0.5

- Kd [1]: 440 µM
- Kd (CLC2 CBS1-2 (WT)): 1060 ± 80 µM
- stimulation by AMP [2]: 3.3 fold
- EC50 [2, 8]: 13 ± 2 µM
- stimulation by AMP [3]: 1.5 fold
- EC50 ([3]; approximate only, read-out: A0.5): 2 ± 2 µM
- stimulation by AMP [4]: 3 fold
- EC50 [4, 8]: 23 ± 6 µM
- EC50 [5]: 51 ± 40 µM
Structure (SMILES): Nc1ncnc2c1ncn2[C@@H]1O[C@H](COP(=O)(O)O)[C@@H](O)[C@H]1O [AMP, adenosine monophosphate]
- EC50 (rat liver AMPK; assays in 200 μM ATP): 4.4 µM
- EC50 (rat liver AMPK; at 4 mM ATP): 29 µM

- Kd (IMPDH2 CBS1-2 (R224P)): 450 ± 36 µM
- h (Hill coefficient) (IMPDH2 Tetramer (WT)): 1.7 and 1.7 ± 0.2
- Kd (IMPDH2 Tetramer (WT); Hill equation, 4 sites): 770 µM
- Kd (IMPDH2 Tetramer (WT)): 760 µM
- displacement of [14C]AMP binding (AMPK-γ2 CBS1-2 construct): completely displaced
- effect on activity [6]: no effect
- Hill coefficient of activation [7]: 1.3±0.1
- stimulation of IMPDH activity (Vmax) [7]: > 4 fold
- EC50 ([7]; read-out: A0.5 for ATP activation, as printed in discussion): 440 µM
- EC50 ([7]; read-out: half-maximal effect): 440 ± 50 µM
Structure (SMILES): Nc1ncnc2c1ncn2[C@@H]1O[C@H](COP(=O)(O)OP(=O)(O)OP(=O)(O)O)[C@@H](O)[C@H]1O [ATP]
